According to ChEMBL document CHEMBL5532744, “2-Aminopyridines as Potent and Selective Nav1.8 Inhibitors Exhibiting Efficacy in a Nonhuman Primate Pain Model” (ACS Med Chem Lett, 2024):
pEC50, pIC50: −log10 of the molar value. In brackets after ≈: the same amount, converted by molar mass. Blank lines part the entries; values can stand above or below the molecule they belong to.

What was measured:
[1] = Solubility of the compound at pH 7; format: physicochemical; details: buffer
[2] = molecular target: Sodium channel protein type 10 subunit alpha (Homo sapiens, UniProt Q9Y5Y9); assay: Inhibition of recombinant human Nav1.8 expressed in HEK293 cells by whole cell patch clamp method; format: cell-based
[3] = molecular target: Sodium channel protein type 5 subunit alpha (Homo sapiens, UniProt Q14524); assay: Inhibition of Nav1.5 (unknown origin)
[4] = molecular target: Sodium channel protein type 10 subunit alpha (Rattus norvegicus, UniProt Q62968); assay: Inhibition of rat neuronal Nav1.8 by patch clamp electrophysiology
[5] = molecular target: Sodium channel protein type 9 subunit alpha (Homo sapiens, UniProt Q15858); assay: Inhibition of Nav1.7 (unknown origin)
[6] = molecular target: Sodium channel protein type 8 subunit alpha (Homo sapiens, UniProt Q9UQD0); assay: Inhibition of Nav1.6 (unknown origin)
[7] = Half-life in rat plasma at 0.05 mg/kg, iv administered as cassette dose; format: ADME, organism-based
[8] = Unbound clearance in rat at 0.05 mg/kg, iv administered as cassette dose; format: ADME, organism-based; details: in vivo
[9] = Half life in rhesus monkey at 2 mg/kg, po or 1 mg/kg, iv; format: ADME, organism-based, Macaca mulatta; details: in vivo
[10] = molecular target: Sodium channel protein type 2 subunit alpha (Homo sapiens, UniProt Q99250); assay: Inhibition of Nav1.2 (unknown origin)
[11] = Volume of distribution in dog at 1 mg/kg, iv; format: ADME, organism-based, Canis lupus familiaris; details: in vivo
[12] = molecular target: Voltage-dependent L-type calcium channel subunit alpha-1C (Homo sapiens, UniProt Q13936); assay: Inhibition of Cav1.2 (unknown origin)
[13] = Clearance in dog at 1 mg/kg, iv; format: ADME, organism-based, Canis lupus familiaris; details: in vivo
[14] = Drug concentration in rhesus monkey plasma at 2 mg/kg, po; format: ADME, organism-based, Macaca mulatta; details: in vivo
[15] = Half life in dog at 2 mg/kg, po or 1 mg/kg, iv; format: ADME, organism-based, Canis lupus familiaris; details: in vivo
[16] = Bioavailability in rhesus monkey at 2 mg/kg, po or 1 mg/kg, iv; format: ADME, organism-based, Macaca mulatta; details: in vivo
[17] = Unbound drug concentration in rhesus monkey plasma at 2 mg/kg, po; format: ADME, organism-based, Macaca mulatta; details: in vivo
[18] = Unbound clearance in rat at 10 mg/kg, po; format: ADME, organism-based; details: in vivo
[19] = Bioavailability in rat at 10 mg/kg, po or 2 mg/kg, iv; format: ADME, organism-based; details: in vivo
[20] = Tmax in dog at 2 mg/kg, po or 1 mg/kg, iv; format: ADME, organism-based, Canis lupus familiaris; details: in vivo
[21] = Clearance in rat at 2 mg/kg, iv; format: ADME, organism-based; details: in vivo
[22] = Unbound volume of distribution in rhesus monkey at 2 mg/kg, po; format: ADME, organism-based, Macaca mulatta; details: in vivo
[23] = Unbound volume of distribution in rat at 10 mg/kg, po; format: ADME, organism-based; details: in vivo
[24] = Unbound drug concentration in rhesus monkey plasma at 18 mg/kg, po; format: ADME, organism-based, Macaca mulatta; details: in vivo
[25] = Drug concentration in rhesus monkey plasma at 6 mg/kg, po; format: ADME, organism-based, Macaca mulatta; details: in vivo
[26] = Tmax in rat at 10 mg/kg, po or 2 mg/kg, iv; format: ADME, organism-based; details: in vivo
[27] = Half life in rat at 10 mg/kg, po or 2 mg/kg, iv; format: ADME, organism-based; details: in vivo
[28] = Unbound clearance in dog at 2 mg/kg, po; format: ADME, organism-based, Canis lupus familiaris; details: in vivo
[29] = Unbound drug concentration in rhesus monkey plasma at 6 mg/kg, po; format: ADME, organism-based, Macaca mulatta; details: in vivo
[30] = Drug concentration in rhesus monkey plasma at 18 mg/kg, po; format: ADME, organism-based, Macaca mulatta; details: in vivo
[31] = Clearance in rhesus monkey at 1 mg/kg, iv; format: ADME, organism-based, Macaca mulatta; details: in vivo
[32] = molecular target: Voltage-gated inwardly rectifying potassium channel KCNH2 (Homo sapiens, UniProt Q12809); assay: Inhibition of hERG; format: toxicity
[33] = Apparent permeability of compound; format: ADME; details: not told
[34] = Volume of distribution in rat at 2 mg/kg, iv; format: ADME, organism-based; details: in vivo
[35] = Tmax in rhesus monkey at 2 mg/kg, po or 1 mg/kg, iv; format: ADME, organism-based, Macaca mulatta; details: in vivo
[36] = Volume of distribution in rhesus monkey at 1 mg/kg, iv; format: ADME, organism-based, Macaca mulatta; details: in vivo
[37] = Bioavailability in dog at 2 mg/kg, po or 1 mg/kg, iv; format: ADME, organism-based, Canis lupus familiaris; details: in vivo
[38] = Unbound volume of distribution in dog at 2 mg/kg, po; format: ADME, organism-based, Canis lupus familiaris; details: in vivo
[39] = Unbound clearance in rhesus monkey at 2 mg/kg, po; format: ADME, organism-based, Macaca mulatta; details: in vivo

Chain of Sodium channel protein type 5 subunit alpha (Q14524 whole entry): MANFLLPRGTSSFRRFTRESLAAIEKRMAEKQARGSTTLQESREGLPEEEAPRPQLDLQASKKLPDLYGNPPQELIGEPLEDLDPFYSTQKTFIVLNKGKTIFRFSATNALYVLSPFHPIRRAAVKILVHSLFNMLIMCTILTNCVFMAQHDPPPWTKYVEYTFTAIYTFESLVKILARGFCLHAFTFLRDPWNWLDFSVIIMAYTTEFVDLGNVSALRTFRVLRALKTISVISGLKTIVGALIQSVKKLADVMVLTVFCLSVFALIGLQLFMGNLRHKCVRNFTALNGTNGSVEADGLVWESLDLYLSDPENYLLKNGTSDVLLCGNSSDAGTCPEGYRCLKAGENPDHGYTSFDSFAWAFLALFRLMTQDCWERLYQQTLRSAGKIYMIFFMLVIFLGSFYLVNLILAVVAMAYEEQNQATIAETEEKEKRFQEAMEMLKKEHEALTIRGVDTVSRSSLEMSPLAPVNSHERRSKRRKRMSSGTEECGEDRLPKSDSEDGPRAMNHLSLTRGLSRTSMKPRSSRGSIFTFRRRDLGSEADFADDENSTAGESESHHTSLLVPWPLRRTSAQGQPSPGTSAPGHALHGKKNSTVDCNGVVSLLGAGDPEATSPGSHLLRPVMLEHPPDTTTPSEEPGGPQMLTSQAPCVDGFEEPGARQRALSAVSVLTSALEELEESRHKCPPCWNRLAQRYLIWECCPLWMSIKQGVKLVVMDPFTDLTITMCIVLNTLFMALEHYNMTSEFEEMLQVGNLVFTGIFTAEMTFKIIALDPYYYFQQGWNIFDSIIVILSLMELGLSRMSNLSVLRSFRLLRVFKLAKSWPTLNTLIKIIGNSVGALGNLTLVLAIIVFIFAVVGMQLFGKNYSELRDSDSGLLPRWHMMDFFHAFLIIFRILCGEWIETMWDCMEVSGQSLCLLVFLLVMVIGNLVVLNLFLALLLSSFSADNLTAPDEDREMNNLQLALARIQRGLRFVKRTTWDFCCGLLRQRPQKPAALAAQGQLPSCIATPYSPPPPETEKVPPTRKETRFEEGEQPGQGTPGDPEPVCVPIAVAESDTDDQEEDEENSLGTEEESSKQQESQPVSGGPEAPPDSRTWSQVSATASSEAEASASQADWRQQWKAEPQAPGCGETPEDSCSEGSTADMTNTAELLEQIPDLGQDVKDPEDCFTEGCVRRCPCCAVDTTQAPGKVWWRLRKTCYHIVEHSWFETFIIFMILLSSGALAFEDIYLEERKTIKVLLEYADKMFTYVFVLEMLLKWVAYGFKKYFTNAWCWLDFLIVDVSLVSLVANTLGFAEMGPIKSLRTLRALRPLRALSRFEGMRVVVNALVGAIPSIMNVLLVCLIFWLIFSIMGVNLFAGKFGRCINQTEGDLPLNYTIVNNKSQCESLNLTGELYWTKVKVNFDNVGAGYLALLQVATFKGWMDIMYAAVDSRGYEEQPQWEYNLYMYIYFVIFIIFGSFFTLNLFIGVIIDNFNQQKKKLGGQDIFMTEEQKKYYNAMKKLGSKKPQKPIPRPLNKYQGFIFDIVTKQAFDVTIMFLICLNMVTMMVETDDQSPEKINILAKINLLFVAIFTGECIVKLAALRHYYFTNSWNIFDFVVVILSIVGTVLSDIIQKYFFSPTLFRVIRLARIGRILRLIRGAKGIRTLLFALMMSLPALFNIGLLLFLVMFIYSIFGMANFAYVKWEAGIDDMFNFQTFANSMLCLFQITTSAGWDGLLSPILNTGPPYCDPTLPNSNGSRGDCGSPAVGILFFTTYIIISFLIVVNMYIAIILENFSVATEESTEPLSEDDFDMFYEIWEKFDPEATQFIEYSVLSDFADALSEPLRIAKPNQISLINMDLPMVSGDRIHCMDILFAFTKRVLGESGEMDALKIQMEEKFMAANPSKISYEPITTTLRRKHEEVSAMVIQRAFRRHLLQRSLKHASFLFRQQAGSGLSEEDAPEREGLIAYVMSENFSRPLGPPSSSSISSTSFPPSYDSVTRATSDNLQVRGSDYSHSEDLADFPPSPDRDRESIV
Chain of Sodium channel protein type 8 subunit alpha (Q9UQD0 whole entry): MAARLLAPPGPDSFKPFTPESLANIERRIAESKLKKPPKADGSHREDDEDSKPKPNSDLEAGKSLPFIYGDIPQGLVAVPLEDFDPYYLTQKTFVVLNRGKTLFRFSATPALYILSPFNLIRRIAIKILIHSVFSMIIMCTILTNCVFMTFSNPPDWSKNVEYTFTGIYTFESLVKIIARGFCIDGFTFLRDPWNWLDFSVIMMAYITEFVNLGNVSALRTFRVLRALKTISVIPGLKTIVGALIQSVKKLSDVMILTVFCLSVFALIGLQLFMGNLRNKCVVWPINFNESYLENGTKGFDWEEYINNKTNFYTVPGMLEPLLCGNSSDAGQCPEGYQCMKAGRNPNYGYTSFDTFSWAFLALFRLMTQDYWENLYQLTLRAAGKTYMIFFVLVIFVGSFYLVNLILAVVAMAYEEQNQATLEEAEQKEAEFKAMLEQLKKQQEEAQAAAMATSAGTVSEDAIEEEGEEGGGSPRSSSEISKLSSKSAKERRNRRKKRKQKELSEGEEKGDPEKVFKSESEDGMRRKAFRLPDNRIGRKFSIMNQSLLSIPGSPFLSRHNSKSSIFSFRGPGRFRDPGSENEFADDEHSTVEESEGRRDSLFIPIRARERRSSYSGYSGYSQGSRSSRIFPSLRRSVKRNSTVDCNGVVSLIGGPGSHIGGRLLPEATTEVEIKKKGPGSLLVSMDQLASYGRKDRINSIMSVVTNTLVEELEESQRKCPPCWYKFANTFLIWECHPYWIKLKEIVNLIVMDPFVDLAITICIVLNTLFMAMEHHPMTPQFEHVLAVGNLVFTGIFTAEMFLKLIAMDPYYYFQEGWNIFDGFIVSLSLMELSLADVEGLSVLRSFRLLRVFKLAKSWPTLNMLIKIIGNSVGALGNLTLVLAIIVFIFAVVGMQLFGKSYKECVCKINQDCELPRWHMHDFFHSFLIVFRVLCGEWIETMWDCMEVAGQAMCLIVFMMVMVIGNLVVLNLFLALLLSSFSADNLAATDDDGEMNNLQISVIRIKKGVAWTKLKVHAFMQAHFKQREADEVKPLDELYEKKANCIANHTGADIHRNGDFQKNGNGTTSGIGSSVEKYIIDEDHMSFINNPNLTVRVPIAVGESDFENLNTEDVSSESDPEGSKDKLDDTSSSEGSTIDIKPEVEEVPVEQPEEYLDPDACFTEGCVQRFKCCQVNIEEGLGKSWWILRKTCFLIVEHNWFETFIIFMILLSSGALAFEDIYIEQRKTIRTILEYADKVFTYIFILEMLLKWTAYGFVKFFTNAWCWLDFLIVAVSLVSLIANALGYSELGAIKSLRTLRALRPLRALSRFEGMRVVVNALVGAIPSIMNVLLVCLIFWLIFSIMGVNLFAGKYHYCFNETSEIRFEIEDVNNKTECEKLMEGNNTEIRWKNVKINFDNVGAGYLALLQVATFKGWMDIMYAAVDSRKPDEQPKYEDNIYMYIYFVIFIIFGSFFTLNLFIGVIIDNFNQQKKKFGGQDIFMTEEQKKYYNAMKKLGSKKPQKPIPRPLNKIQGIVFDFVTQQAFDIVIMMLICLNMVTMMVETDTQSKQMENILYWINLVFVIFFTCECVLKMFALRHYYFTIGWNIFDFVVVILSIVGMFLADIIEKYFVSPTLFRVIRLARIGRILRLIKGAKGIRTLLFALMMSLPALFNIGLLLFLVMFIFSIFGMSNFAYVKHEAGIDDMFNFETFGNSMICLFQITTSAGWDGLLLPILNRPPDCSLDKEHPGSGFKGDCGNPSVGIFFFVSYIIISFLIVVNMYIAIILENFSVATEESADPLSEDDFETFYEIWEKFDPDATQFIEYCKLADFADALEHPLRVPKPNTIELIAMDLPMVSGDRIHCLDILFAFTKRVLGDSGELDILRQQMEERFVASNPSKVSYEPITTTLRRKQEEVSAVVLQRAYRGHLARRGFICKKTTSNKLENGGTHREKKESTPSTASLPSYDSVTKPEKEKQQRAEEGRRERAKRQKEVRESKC
Chain of Voltage-gated inwardly rectifying potassium channel KCNH2 (Q12809 whole entry): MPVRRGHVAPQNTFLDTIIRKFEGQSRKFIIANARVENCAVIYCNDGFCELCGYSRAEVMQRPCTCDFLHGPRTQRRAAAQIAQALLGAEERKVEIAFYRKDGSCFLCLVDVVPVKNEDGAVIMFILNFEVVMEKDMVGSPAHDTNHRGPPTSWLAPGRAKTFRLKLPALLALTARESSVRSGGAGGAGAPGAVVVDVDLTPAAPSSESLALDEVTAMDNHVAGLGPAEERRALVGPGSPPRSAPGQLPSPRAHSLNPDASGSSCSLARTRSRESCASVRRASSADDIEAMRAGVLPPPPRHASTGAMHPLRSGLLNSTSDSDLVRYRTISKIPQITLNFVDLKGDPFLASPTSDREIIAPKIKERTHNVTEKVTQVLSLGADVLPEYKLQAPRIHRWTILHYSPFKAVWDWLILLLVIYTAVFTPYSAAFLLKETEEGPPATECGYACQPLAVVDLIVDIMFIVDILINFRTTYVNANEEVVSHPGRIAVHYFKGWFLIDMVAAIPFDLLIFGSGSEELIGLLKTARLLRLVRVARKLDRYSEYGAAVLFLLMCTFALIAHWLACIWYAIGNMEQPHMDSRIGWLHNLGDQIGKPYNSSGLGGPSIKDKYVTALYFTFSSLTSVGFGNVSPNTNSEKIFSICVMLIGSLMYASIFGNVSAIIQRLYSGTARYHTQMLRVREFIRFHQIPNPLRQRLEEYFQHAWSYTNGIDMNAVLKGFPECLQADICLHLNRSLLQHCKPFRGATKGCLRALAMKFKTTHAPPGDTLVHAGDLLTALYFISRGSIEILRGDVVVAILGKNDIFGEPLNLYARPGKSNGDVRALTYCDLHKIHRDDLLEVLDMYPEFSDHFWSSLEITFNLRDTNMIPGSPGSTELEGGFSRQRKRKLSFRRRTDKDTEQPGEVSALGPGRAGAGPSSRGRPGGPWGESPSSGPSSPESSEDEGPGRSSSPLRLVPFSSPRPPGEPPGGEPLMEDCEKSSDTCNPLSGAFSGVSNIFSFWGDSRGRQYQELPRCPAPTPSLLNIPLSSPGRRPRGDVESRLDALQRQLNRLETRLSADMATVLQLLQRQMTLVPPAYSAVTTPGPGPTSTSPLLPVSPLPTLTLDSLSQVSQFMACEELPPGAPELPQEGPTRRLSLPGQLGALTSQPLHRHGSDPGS

Compound: NS(=O)(=O)c1cccc(NC(=O)c2cc(C(F)(F)F)cnc2N2CCCC2)c1
solubility [1]: 160 µM (≈ 66.3 µg/mL)
pEC50 [2]: 5.70

Compound: Cc1cc(C(=O)Nc2cccc(S(N)(=O)=O)c2)c(N2CCCCC2)nc1C
solubility [1]: 11 µM (≈ 4.27 µg/mL)
half-life [7]: 0.57 h
CL free [8]: 2900 mL/min/kg
pEC50 [2]: 6.49

Compound: NS(=O)(=O)c1cccc(NC(=O)c2cc(C(F)(F)F)cnc2N2CCCCCC2)c1
solubility [1]: 120 µM (≈ 53.1 µg/mL)
half-life [7]: 0.62 h
CL free [8]: 1800 mL/min/kg
pEC50 [2]: 7.92

Compound: CN1CCN(c2nc3ccccc3cc2C(=O)Nc2cccc(S(N)(=O)=O)c2)CC1
pEC50 [2]: 4.70

Compound: NS(=O)(=O)c1cccc(NC(=O)c2ccc(C(F)(F)F)nc2N2CCCCC2)c1
solubility [1]: 91 µM (≈ 39 µg/mL)
half-life [7]: 0.89 h
CL free [8]: 1300 mL/min/kg
pEC50 [2]: 6.54

Compound: NS(=O)(=O)c1cccc(NC(=O)c2cc(C(F)(F)F)cnc2N2CCCCC2)c1
solubility [1]: 120 µM (≈ 51.4 µg/mL)
half-life [7]: 1.5 h
CL free [8]: 370 mL/min/kg
pEC50 [2]: 6.66

Compound: Cc1ccc(C(=O)Nc2cccc(S(N)(=O)=O)c2)c(N2CCCCC2)n1
solubility [1]: 58 µM (≈ 21.7 µg/mL)
half-life [7]: 0.55 h
CL free [8]: 1100 mL/min/kg
pEC50 [2]: 6.07

Compound: CN1CCN(c2nc3ccccc3nc2C(=O)Nc2cccc(S(N)(=O)=O)c2)CC1
pEC50 [2]: < 4.52

Compound: NS(=O)(=O)c1cccc(NC(=O)c2cc3ccccc3nc2N2CCOCC2)c1
pEC50 [2]: 5.70

Now from value to molecule, other results behind:

pIC50 [4]: 7.10
pIC50 [5]: < 4.52
pEC50 [6]: < 4.52
Compound: CC(C)(C)c1cc(C(=O)Nc2cccc(S(N)(=O)=O)c2)n(Cc2ccccc2)n1
pEC50 [3]: < 4.52

solubility [1]: 14 µM (≈ 5.24 µg/mL)
pEC50 [2]: 4.85
Compound: Cc1cnc(N2CCCCC2)c(C(=O)Nc2cccc(S(N)(=O)=O)c2)c1

pEC50 [2]: 4.66
Compound: NS(=O)(=O)c1cccc(NC(=O)c2cccnc2N2CCCCC2)c1

solubility [1]: 110 µM (≈ 52.6 µg/mL)
half-life [7]: 1.1 h
CL free [8]: 600 mL/min/kg
Compound: NS(=O)(=O)c1cccc(NC(=O)c2cc(C(F)(F)F)cnc2N2CCCC(F)(F)CC2)c1

pEC50 [2]: 6.96
Compound: NS(=O)(=O)c1cccc(NC(=O)c2nc3ccccc3nc2N2CCCCC2)c1

pIC50 [4]: 4.68
pIC50 [5]: < 4.52
pEC50 [6]: < 4.52
Compound: COc1ccccc1NC(=O)c1nc2ccccc2nc1N1CCCCC1
pEC50 [3]: < 4.52

solubility [1]: 68 µM (≈ 30.9 µg/mL)
half-life [7]: 0.72 h
CL free [8]: 1800 mL/min/kg
pEC50 [2]: 7.47
Compound: NS(=O)(=O)c1cccc(NC(=O)c2cc(C(F)(F)F)cnc2N2CCCC3(CC3)C2)c1

half-life [9]: 6.6 h
pEC50 [10]: < 4.52
Vd [11]: 0.73 L/kg
solubility [1]: 150 µM (≈ 69.7 µg/mL)
clearance [13]: 0.96 mL/min/kg
concentration [14]: 2180 nM
half-life [7]: 3.3 h
half-life [15]: 8.8 h
bioavailability [16]: 77%
Cp(f) [17]: 111 nM
CL free [8]: 100 mL/min/kg
CL free [18]: 100 mL/min/kg
bioavailability [19]: 82%
Tmax [20]: 1.5 h
clearance [21]: 7.1 mL/min/kg
Vdu [22]: 33 L/kg
Vdu [23]: 19 L/kg
pEC50 [6]: < 4.52
Cp(f) [24]: 948 nM
concentration [25]: 6110 nM
Tmax [26]: 2.5 h
half-life [27]: 2.2 h
CL free [28]: 40 mL/min/kg
pEC50 [2]: 7.38
Cp(f) [29]: 312 nM
concentration [30]: 18600 nM
clearance [31]: 3.15 mL/min/kg
Papp [33]: 28 ×10⁻⁶ cm/s
Vd [34]: 1.3 L/kg
Tmax [35]: 2.5 h
Vd [36]: 1.68 L/kg
bioavailability [37]: 45%
Vdu [38]: 30 L/kg
CL free [39]: 62 mL/min/kg
Compound: NS(=O)(=O)c1cccc(NC(=O)c2cc(C(F)(F)F)cnc2N2CCC(F)(F)CC2)c1
pEC50 [3]: < 4.52
pIC50 [12]: 4.57
pIC50 [32]: < 4.52

solubility [1]: 53 µM (≈ 24.1 µg/mL)
half-life [7]: 2.8 h
CL free [8]: 250 mL/min/kg
pEC50 [2]: 7.49
Compound: NS(=O)(=O)c1cccc(NC(=O)c2cc(C(F)(F)F)cnc2N2CCC3(CC2)CC3)c1

solubility [1]: 160 µM (≈ 74.3 µg/mL)
half-life [7]: 1.1 h
CL free [8]: 210 mL/min/kg
pEC50 [2]: 6.62
Compound: NS(=O)(=O)c1cccc(NC(=O)c2cc(C(F)(F)F)cnc2N2CCCC(F)(F)C2)c1
